In experiment [1] the test system is melanocyte dendricity. Kind of experiment: Melanocyte dendricity in skin explant cryostat sections, Anti-Melan-A immunofluorescence. The class given is cell-based, human. The following applies: Day 5. As to the method: (§1) Skin samples from an abdominal plastic surgery patient are placed in a specific explant survival medium BEM from Centre de Recherche Laboratoire BIO-EC (Clamart, France). Once daily, the living skin explants are irradiated with a Vilber Lourmat solar simulator RMX3W (Marne-la-Vallee, France) at a dose of 75 mJ/cm^2 within a wavelength range of 290-330 nm and a peak of 312 nm (UVB) for 80 seconds.
(§2) Five minutes following irradiation, the skin samples are treated with a topical application of 2 mg/cm^2 of a gel formulation comprising the Phytocytol™ BLM, a stable flavonoid solution according to the present invention. The gel formulation is made according to the following procedure: Three separate gels, each containing one of baicalin, luteolin and myricetin, are prepared according to the same procedure. In a main beaker, add DI Water, Germall Plus and Carbopol Ultrez-10. When Carbopol is dispersed add ¼ of the indicated amount of Neutrol TE. Add Polycast-3 and continue mixing. Add the flavonoid solution (A, B and C) until homogenous. Add the remaining Neutrol TE and mix. The resulting Baicalin Gel, Luteolin Gel and Myricetin Gel are mixed in equal parts to form a gel having a pH of 6.91 and a viscosity of 30,500 cps (LV4@12 rpm). […]

The test system of experiment [2] is melanin within the melanocytes. Kind of experiment: Melanin deposits in melanocytes of skin explants, Fontana-Masson silver stain. The settings on record: Day 5. It is filed as cell-based, human. How it is done:
as §1, §2

Experiment [3] concerns the target T1, tyrosinase (Homo sapiens, UniProt P14679).
T1 construct: Where tyrosinase is active, L-DOPA is oxidized, producing an observable black pigment in the melanocytes; from tissue; host or cells: living abdominal skin explants (melanocytes)
T1 sequence (P14679 19-529): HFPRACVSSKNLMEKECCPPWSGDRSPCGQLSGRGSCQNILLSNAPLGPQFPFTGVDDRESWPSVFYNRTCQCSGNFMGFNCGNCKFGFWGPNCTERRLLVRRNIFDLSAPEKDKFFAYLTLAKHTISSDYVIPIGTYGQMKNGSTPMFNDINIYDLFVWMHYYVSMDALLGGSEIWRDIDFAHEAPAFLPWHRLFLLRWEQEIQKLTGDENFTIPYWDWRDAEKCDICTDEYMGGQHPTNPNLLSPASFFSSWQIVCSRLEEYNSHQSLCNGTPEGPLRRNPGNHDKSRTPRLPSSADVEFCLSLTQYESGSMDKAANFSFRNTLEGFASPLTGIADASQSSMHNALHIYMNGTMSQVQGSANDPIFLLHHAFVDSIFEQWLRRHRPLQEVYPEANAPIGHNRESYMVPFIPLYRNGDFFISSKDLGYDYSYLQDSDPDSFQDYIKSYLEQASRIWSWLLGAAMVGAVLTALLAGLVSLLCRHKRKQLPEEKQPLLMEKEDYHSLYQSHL
Kind of experiment: Tyrosinase activity in living skin explant sections (L-DOPA method of Laidlaw and Blackberg). The class given is cell-based. The following applies: non-irradiated skin explants, topical gel 2 mg/cm^2, Day 5.

Molecules are shown by their SMILES.

Results on one compound are retold here after patent publication US20100227826A1, “Stable Flavonoid Solutions” (priority 2005, published 2010).

Consider `OC[C@H]1O[C@@H](Oc2ccc(O)cc2)[C@H](O)[C@@H](O)[C@@H]1O` [arbutin], for which the “level of melanocyte dendricity” value is “low level of dendricity” in experiment [1] (after UVB irradiation, skin explants) and “low level of dendricity” in experiment [1] (non-UVB irradiated skin explants). The melanin deposits entry is reported as “low levels of melanin deposits” in experiment [2] (absence of UVB irradiation) and “An increase in melanin deposits is not observed” in experiment [2] (after exposure to UVB irradiation). In experiment [3], the “level of tyrosinase activity” value is on record as “substantially greater compared to the arbutin-treated samples”.
